Test results reported in ChEMBL document CHEMBL3808365, “Potent and Selective CK2 Kinase Inhibitors with Effects on Wnt Pathway Signaling in Vivo” (ACS Med Chem Lett, 2016).
In brackets after ≈: the same amount, converted by molar mass.

Experiments:
[1] = Inhibition of CK2 in mouse L-Wnt3a cells assessed as suppression of Wnt3a-mediated L S/L Super TOPFlash reporter gene transcription after 24 hrs; conditions: L Wnt-3A
[2] = Aqueous solubility of the compound in phosphate buffer at pH 7.4 incubated for 24 hrs by LC/MS/MS method; type: physicochemical
[3] = Fraction unbound in human plasma at 10 uM by equilibrium dialysis method; type: ADME, cell-free
[4] = Intrinsic clearance in rat hepatocyte assessed per 10^6 cells; type: ADME, cell-based; conditions: hepatocytes, read-out: CLH
[5] = Intrinsic clearance in human liver microsomes; type: ADME; conditions: read-out: CLH
[6] = target: Casein kinase II subunit alpha (Homo sapiens, UniProt P68400); assay: Inhibition of full length N-terminal 6xHis-tagged recombinant human CK2alpha expressed in fall armyworm Sf21 cells using BODIPY-FL-RRRDDDSDDD-CONH2 as substrate after 90 mins by mobility shift assay
[7] = Antiproliferative activity against human […] cells after 72 hrs by alamar blue assay; type: functional; conditions: HCT-116, 72 h
[8] = Antiproliferative activity against human DLD1 cells after 72 hrs by alamar blue assay; type: functional; conditions: DLD-1, 72 h
[9] = Antiproliferative activity against human SW620 cells after 72 hrs by alamar blue assay; type: functional; conditions: SW-620, 72 h
Casein kinase II = Casein kinase II (Homo sapiens, UniProt P19784+P67870+P68400); assay: Inhibition of CK2 in human DLD1 HA-myr-AKT1 cells assessed as suppression of AKTser129 phosphorylation after 3 to 24 hrs by Western blot analysis
Casein kinase II, sequence (P67870 whole entry): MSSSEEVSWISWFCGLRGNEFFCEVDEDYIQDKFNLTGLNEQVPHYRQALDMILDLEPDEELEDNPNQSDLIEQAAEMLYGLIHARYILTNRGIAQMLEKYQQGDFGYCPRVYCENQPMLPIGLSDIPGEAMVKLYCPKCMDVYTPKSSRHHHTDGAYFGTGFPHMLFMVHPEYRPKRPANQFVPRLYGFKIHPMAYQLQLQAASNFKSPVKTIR
Casein kinase II, sequence (P68400 whole entry): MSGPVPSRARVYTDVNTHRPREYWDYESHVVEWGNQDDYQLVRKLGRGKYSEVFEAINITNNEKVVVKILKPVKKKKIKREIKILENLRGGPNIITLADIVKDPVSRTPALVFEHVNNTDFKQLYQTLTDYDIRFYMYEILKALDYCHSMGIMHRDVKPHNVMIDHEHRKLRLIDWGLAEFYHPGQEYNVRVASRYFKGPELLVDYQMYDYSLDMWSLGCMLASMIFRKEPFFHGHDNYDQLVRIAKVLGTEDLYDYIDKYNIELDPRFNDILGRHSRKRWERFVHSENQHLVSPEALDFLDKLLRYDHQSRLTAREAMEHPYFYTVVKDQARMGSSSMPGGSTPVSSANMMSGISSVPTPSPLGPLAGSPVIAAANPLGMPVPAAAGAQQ
Casein kinase II, sequence (P19784 whole entry): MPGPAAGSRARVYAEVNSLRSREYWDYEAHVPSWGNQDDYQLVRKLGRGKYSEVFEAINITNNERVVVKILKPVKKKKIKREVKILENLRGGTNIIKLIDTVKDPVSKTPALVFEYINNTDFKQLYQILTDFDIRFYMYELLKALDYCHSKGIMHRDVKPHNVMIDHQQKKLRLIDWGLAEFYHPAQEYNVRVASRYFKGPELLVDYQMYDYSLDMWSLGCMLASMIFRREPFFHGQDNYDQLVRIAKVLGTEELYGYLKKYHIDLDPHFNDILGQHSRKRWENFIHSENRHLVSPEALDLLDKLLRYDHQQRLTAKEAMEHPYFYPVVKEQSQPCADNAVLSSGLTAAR

Casein kinase II subunit alpha, sequence (P68400 whole entry): as the sequence (P68400 whole entry) above

Row | SMILES | IC50 [1] [nM] | solubility at 24 h [2] [µM] | fraction unbound at 10 µM [3] | hepatocyte CLint [4] [µL/min/1e6 cells] | microsomal CLint [5] [µL/min/mg] | IC50 [6] [nM] | GI50 [7] [nM] | GI50 [8] [nM] | GI50 [9] [nM] | IC50 (Casein kinase II) [nM]
1 | CC(=O)Nc1cc(Nc2cc(NC3CC3)n3ncc(C#N)c3n2)ccc1N(C)CCN1CC(F)(F)C1 | 760 | 241 (≈ 119 µg/mL) | 0.02 | – | – | – | – | – | – | –
2 | CCN(CC)CCN(C)c1ccc(Nc2cc(NC3CC3)n3ncc(C#N)c3n2)cc1NC(C)=O | 390 | > 1000 | 0.23 | 27 | 44 | – | – | – | – | –
3 | CC(=O)Nc1cc(Nc2cc(NC3CC3)n3ncc(C#N)c3n2)ccc1N1CC[C@H](N(C)C)C1 | 380 | > 800 | 0.29 | 2.5 | 9 | – | – | – | – | –
4 | CC(=O)Nc1cc(Nc2cc(NC3CC3)n3ncc(C#N)c3n2)ccc1N1CCC[C@@H](N)C1 | 650 | > 1000 | 0.2 | < 1 | < 3 | – | – | – | – | –
5 | CCN(CCN)c1ccc(Nc2cc(NC3CC3)n3ncc(C#N)c3n2)cc1NC(C)=O | 32 | > 1000 | 0.3 | 2 | 5 | < 3 | – | – | – | –
6 | CC(=O)Nc1cc(Nc2cc(NC3CC3)n3ncc(C#N)c3n2)ccc1C | – | – | 0.1 | 5 | 10 | – | 80 | 170 | 100 | –
7 | CC(=O)Nc1cc(Nc2cc(NC3CC3)n3ncc(C#N)c3n2)ccc1N(C)CCN1CCOCC1 | 300 | 275 (≈ 135 µg/mL) | 0.18 | > 300 | 135 | < 3 | – | – | – | 5
8 | CC(=O)Nc1cc(Nc2cc(NC3CC3)n3ncc(C#N)c3n2)ccc1N(C)CCCN(C)C | 730 | > 1000 | 0.22 | 15 | < 4 | – | – | – | – | –
9 | CC(=O)Nc1cc(Nc2cc(NC3CC3)n3ncc(C#N)c3n2)ccc1N(C)C[C@@H](C)N | 400 | 825 (≈ 358 µg/mL) | 0.33 | < 1 | < 3 | < 3 | – | – | – | 4
